These results are taken from patent US8686046B2, “Compositions and methods for inhibiting sphingosine kinase” (University of Virginia Patent Foundation, priority 2008, dated 2014).

The structures appear in SMILES notation.

The test system of data set [1] is SMCs. Kind of data set: Images of SMCs treated with and without compound. It counts as cell-based. The following applies: FIG. 21C.
In the next data set the target is T1, Sphk1 (Rattus norvegicus, UniProt Q91V26).
T1 construct: endogenous in cells; host or cells: cultured rat aortic smooth muscle cells
Kind of data set: Sphk1/Sphk2 activity in PDGF-BB-stimulated smooth muscle cells (P32 ATP kinase assay). The class given is cell-based. The following applies: cultured rat aortic smooth muscle cells stimulated with PDGF-BB; FIG. 19B. The protocol:
(§1) Smooth muscle cells (SMCs) are treated with platelet-derived growth factor BB (PDGF-BB), a potent modulator of SMC.
(§2) FIG. 19 illustrates the PDGF-BB increase Sphk1 mRNA, Spkh1 (not Sphk2) activity and S1P production. […] Cultured rat aortic smooth muscle cells were stimulated with PDGF-BB. 19A.) Real-time PCR analysis of Sphk1 mRNA at various time points compared to vehicle control. 19B.) Analysis of Sphk1 and Sphk2 activity (P^32ATP kinase assay). 19C.) S1P concentration in the media 12 hours after stimulating SMCs with PDGF-BB.

Another data set relates to SphK. Briefly: SphK inhibition.
The subject of data set [2] is SMCs. Briefly: Cell cytotoxicity by Promega caspase activity assay. The class given is cell-based. Conditions: after 24 hr treatment, FIG. 21B.
Another data set relates to S1P production. Kind of data set: S1P production by smooth muscle cells (LC/MS). The class given is cell-based, rat. The protocol: as §1, §2
Data set [3] relates to SMCs. Briefly: PDGF-BB-induced SMC proliferation by BrdU incorporation. The class given is cell-based. The following applies: FIG. 21A. As for the experimental part:
Cell proliferation was measured by BrdU incorporation.
Background: Dividing cells build labelled thymidine or BrdU into new DNA.

T1 sequence (Q91V26 whole entry): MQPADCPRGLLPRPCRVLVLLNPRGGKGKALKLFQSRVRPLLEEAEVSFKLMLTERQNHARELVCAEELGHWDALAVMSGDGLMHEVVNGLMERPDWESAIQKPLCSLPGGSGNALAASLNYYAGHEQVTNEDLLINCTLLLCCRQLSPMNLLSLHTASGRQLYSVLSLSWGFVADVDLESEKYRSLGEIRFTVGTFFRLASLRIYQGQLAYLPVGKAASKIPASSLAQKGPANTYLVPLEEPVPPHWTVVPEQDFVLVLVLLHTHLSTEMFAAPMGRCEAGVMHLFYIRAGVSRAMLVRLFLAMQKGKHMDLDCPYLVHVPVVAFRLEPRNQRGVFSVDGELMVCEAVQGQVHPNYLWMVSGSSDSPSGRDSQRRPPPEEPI

Consider `CCCCCCCCc1ccc(C(=O)N[C@@H](C)C(=N)N)cc1` [VPC94075], for which, in the data set on SMCs [1], the “SMC proliferation as indicated by differences in confluence” value is “prevention of SMC proliferation” and the cell morphology result is “healthy cell morphology”. Also, the “PDGF-BB-induced Sphk1 activity” value at Sphk1 is “prevents PDFD-BB-induced Sphk1 activity”. Also, the “SphK inhibition (description)” value in the data set on SphK is recorded as “non-selective SphK inhibitor”. For the same compound, the cell death entry with SMCs [2] is recorded as “does not induce cell death”. Moreover, in the data set with S1P production (10 uM, S1P in media 12 hours after stimulating SMCs with PDGF-BB, FIG. 19C), the “PDGF-BB-induced S1P production” value is reported as “blocks PDGF-BB-induced S1P production”. Besides, the “endogenous and PDGF-BB-induced S1P production” value with S1P production (concentration not given) was “suppresses both endogenous and PDGF-BB-induced S1P production”.

Turning to `CCCCCCCCc1ccc(C(=O)NC(C)C(N)=O)cc1` (stereo not drawn) [VPC94193], the “SphK inhibition (description)” value in the data set with SphK is “inactive form”. For the same compound, the “PDGF-BB-induced SMC proliferation” value in the data set with SMCs [3] is listed as “prevented PDGF-BB-induced SMC proliferation”.
